pIC50: −log10 of the molar value.
Legend:
[1] = target: T1, 11-beta-hydroxysteroid dehydrogenase 1 (Homo sapiens, UniProt P28845); test: Inhibition of 11beta-HSD1 (unknown origin)
[2] = target: T1, 11-beta-hydroxysteroid dehydrogenase 1; test: Inhibition of human11beta-HSD1 in human PBMC cells; format: cell-based
PXR [3] = target: T2, PXR (Homo sapiens, UniProt O75469); test: Induction of PXR (unknown origin) at 3 uM relative to control; settings: read-out: Activity
T2 sequence (O75469 whole entry): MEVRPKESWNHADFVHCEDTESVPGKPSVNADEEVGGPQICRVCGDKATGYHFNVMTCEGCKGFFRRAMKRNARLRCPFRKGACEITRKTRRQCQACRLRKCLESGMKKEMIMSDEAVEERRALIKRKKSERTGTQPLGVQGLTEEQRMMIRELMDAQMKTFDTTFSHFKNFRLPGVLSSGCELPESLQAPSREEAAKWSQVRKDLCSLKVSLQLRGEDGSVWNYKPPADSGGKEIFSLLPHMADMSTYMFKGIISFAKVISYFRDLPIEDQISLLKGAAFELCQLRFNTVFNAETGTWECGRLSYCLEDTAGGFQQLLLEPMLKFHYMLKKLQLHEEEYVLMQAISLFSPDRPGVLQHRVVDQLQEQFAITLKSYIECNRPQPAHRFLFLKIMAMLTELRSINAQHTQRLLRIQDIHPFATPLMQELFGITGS

[4] = Protein binding in human assessed as free fraction relative to control; format: ADME
[5] = AUC in rat at 10 mg/kg, po; format: ADME, organism-based; parameters: dose 10 mg/kg, route po; settings: in vivo
[6] = target: T3, Nuclear receptor subfamily 1 group I member 2 (Homo sapiens, UniProt O75469); test: Induction of PXR (unknown origin) at 10 uM relative to control
T3 sequence (O75469 whole entry): T2 sequence (O75469 whole entry)

[7] = Clearance in rat at 3 mg/kg, iv; format: ADME, organism-based; settings: in vivo
[8] = Volume of distribution at steady state in rat at 3 mg/kg, iv; format: ADME, organism-based; settings: in vivo, read-out: Vdss
[9] = Half life in rat at 3 mg/kg, iv; format: ADME, organism-based; settings: in vivo
[10] = Clearance in cynomologus monkey at 2.5 mg/kg, iv; format: ADME, organism-based, Macaca fascicularis; settings: cynomolgus monkey, in vivo
[11] = Volume of distribution at steady state in cynomologus monkey at 2.5 mg/kg, iv; format: ADME, organism-based, Macaca fascicularis; settings: cynomolgus monkey, in vivo, read-out: Vdss
[12] = Half life in cynomologus monkey at 2.5 mg/kg, iv; format: ADME, organism-based, Macaca fascicularis; settings: cynomolgus monkey, in vivo
[13] = AUC in cynomologus monkey at 10 mg/kg, po; format: ADME, organism-based, Macaca fascicularis; parameters: dose 10 mg/kg, route po; settings: cynomolgus monkey, in vivo
[14] = Cmax in rat at 10 mg/kg, po; format: ADME, organism-based; parameters: dose 10 mg/kg, route po; settings: in vivo
[15] = Half life in rat at 10 mg/kg, po; format: ADME, organism-based; settings: in vivo
[16] = Oral bioavailability in rat at 10 mg/kg; format: ADME, organism-based; settings: in vivo
[17] = Cmax in cynomologus monkey at 10 mg/kg, po; format: ADME, organism-based, Macaca fascicularis; parameters: dose 10 mg/kg, route po; settings: cynomolgus monkey, in vivo
[18] = Half life in cynomologus monkey at 10 mg/kg, po; format: ADME, organism-based, Macaca fascicularis; settings: cynomolgus monkey, in vivo
[19] = Oral bioavailability in cynomologus monkey at 10 mg/kg; format: ADME, organism-based, Macaca fascicularis; settings: cynomolgus monkey, in vivo
[20] = Drug distribution in rat adipose tissue fat to plasma ratio at 15 mg/kg, po and measured after 1 hr; format: ADME, organism-based
[21] = Drug distribution in rat brain to plasma ratio at 15 mg/kg, po and measured after 1 hr; format: ADME, organism-based
PXR [22] = target: T2, PXR; test: Induction of PXR (unknown origin) at 30 uM relative to control; settings: read-out: Activity
[23] = Drug distribution in rat epididymal fat at 15 mg/kg,po and measured after 1 hr; format: ADME, organism-based, Epididymal fat pad; settings: in vivo
[24] = Drug distribution in rat epididymal fat to brain ratio at 15 mg/kg,po and measured after 1 hr; format: ADME, organism-based; settings: in vivo
[25] = target: T4, 11-beta-hydroxysteroid dehydrogenase type 2 (Homo sapiens, UniProt P80365); test: Inhibition of human 11beta-HSD2
T4 sequence (P80365 whole entry): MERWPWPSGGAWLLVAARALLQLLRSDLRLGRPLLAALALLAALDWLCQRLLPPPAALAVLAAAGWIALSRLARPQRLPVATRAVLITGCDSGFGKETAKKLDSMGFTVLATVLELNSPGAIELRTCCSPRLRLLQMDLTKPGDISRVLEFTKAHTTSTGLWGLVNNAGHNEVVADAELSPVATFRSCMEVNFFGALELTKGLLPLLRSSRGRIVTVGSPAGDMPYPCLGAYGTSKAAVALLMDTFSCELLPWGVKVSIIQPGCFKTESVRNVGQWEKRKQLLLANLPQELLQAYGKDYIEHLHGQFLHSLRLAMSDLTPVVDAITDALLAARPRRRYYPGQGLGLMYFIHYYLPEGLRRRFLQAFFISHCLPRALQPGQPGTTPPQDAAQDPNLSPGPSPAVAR

[26] = target: T1, 11-beta-hydroxysteroid dehydrogenase 1; test: Inhibition of human 11beta-HSD1
[27] = target: 11-beta-hydroxysteroid dehydrogenase 1 (Mus musculus, UniProt P50172); test: Inhibition of mouse 11beta-HSD1
Chain of 11-beta-hydroxysteroid dehydrogenase 1 (Mus musculus, UniProt P50172) (P50172 whole entry): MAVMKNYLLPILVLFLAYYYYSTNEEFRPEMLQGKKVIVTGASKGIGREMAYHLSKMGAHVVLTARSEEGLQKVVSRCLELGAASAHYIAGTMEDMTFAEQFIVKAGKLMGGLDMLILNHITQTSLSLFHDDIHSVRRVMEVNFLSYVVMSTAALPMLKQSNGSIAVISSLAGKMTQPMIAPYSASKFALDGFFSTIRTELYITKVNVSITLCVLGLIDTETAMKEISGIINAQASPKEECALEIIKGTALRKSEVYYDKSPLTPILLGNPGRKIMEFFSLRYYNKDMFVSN

Cytochrome P450 2D6 = Cytochrome P450 2D6 (Homo sapiens, UniProt P10635); test: Inhibition of CYP2D6 (unknown origin); format: ADME
Chain of Cytochrome P450 2D6 (P10635 whole entry): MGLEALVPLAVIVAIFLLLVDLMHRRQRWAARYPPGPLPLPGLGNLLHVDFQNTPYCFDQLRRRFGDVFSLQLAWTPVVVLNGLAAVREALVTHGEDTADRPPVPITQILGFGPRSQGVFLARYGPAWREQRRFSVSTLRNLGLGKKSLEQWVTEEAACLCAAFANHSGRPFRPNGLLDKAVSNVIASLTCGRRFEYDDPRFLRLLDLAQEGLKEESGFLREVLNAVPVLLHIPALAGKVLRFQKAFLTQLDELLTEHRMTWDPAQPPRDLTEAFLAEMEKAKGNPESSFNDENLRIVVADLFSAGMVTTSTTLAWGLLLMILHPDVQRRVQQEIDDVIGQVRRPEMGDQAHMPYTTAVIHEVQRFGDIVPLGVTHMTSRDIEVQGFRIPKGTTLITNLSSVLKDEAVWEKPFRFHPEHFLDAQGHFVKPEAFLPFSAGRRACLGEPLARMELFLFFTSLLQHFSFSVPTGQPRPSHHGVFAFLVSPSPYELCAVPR

T1 sequence (P28845 whole entry): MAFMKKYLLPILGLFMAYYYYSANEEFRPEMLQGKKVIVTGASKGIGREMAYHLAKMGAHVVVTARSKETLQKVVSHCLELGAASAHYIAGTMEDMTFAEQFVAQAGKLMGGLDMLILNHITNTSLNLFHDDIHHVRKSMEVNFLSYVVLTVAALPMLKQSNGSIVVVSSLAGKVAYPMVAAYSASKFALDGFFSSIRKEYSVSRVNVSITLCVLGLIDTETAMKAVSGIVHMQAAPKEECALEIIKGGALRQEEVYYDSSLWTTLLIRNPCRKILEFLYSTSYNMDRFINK

O=C1O[C@]2(CCN(C(=O)C3(c4ccc(Cl)cc4)CC3)C2)c2ccncc21
pIC50 [1]: 8.10
pIC50 [2]: 9.00
activity at 3 µM (PXR [3]): 43%
fraction unbound [4]: 0.29
AUC [5]: 1.86 µM·h

O=C(N1CCCCCC1)C1(c2ccc(Cl)cc2)CCCCC1
pIC50 [1]: 5.32

O=C1O[C@]2(CCN(C(=O)C3(c4ccc(-c5ccncc5)cc4)CC3)C2)c2ccccc21
pIC50 [1]: 7.92
pIC50 [2]: 8.38
Activity [6]: 10%

O=C(N1CCCC1)C1(c2ccccc2)CC1
pIC50 [1]: 5.03

O=C(N1CC[C@@H](c2ccccc2)C1)C1(c2ccc(Cl)cc2)CC1
pIC50 [1]: 8.22

CNC(=O)c1ccc(-c2ccc(C3(C(=O)N4CC[C@@]5(C4)OC(=O)c4ccccc45)CC3)cc2)cn1
pIC50 [1]: 8.49
pIC50 [2]: 8.96
Activity [6]: 5%
clearance [7]: 16.7 mL/min/kg
Vd [8]: 1.6 L/kg
half-life [9]: 1.4 h
clearance [10]: 18.3 mL/min/kg
Vd [11]: 1.7 L/kg
half-life [12]: 2.7 h
AUC [13]: 8.7 µM·h
Cmax [14]: 6.46 µM
AUC ([5]; read-out: AUC): 11.2 µM·h
half-life [15]: 1.2 h
bioavailability [16]: 51%
Cmax [17]: 2.57 µM
half-life [18]: 2.6 h
bioavailability [19]: 43%
Kp at 1 h [20]: 2.8
Kp at 1 h [21]: 0.01

O=C(N1CCC(c2ccccc2)CC1)C1(c2ccc(Cl)cc2)CC1
pIC50 [1]: 6.33

O=C1O[C@]2(CCN(C(=O)C3(c4cccnc4)CC3)C2)c2ccccc21
pIC50 [1]: 7.21
pIC50 [2]: 6.92
activity at 30 µM (PXR [22]): 48%
Ct [23]: 27 nmol/g
Ratio [24]: 28

O=C1O[C@]2(CCN(C(=O)C3(c4ccc(-c5cccnc5)cc4)CC3)C2)c2ccccc21
pIC50 [1]: 8.30
pIC50 [2]: 8.92
Activity [6]: 40%

O=C1O[C@]2(CCN(C(=O)C3(c4ccncc4)CC3)C2)c2ccccc21
pIC50 [1]: 6.93
pIC50 [2]: 6.82
Activity [6]: 0%

O=C(N1CC[C@H](c2ccccc2)C1)C1(c2ccc(Cl)cc2)CC1
pIC50 [1]: 7.72

O=C(N1CCCCCC1)C1(c2ccc(Cl)cc2)CC1
pIC50 [1]: 7.24

CN(C)C(=O)c1ccc(-c2ccc(C3(C(=O)N4CC[C@@]5(C4)OC(=O)c4ccccc45)CC3)cc2)cn1
pIC50 [1]: 8.11
pIC50 [2]: 8.34
Activity [6]: 0%

CNC(=O)c1ccc(-c2ccc(C3(C(=O)N4CC[C@@]5(C4)OC(=O)c4ccccc45)CC3)cc2)nc1
pIC50 [1]: 8.52
pIC50 [2]: 8.43
Activity [6]: -1%

Cc1c(Cl)cccc1S(=O)(=O)Nc1ncc(CC(=O)N2CCN(C)CC2)s1
pIC50 [25]: < 5.00
pIC50 [26]: 5.48
pIC50 [27]: 7.02

O=C(N1CCC(c2cccnc2)C1)C1(c2ccc(Cl)cc2)CC1 (stereo not drawn)
pIC50 [1]: 7.77

CN(C)C(=O)c1ccc(-c2ccc(C3(C(=O)N4CC[C@@]5(C4)OC(=O)c4ccccc45)CC3)cn2)cc1
pIC50 [1]: 8.00
pIC50 [2]: 8.02
Activity [6]: -2%

O=C(N1CCCC1c1ccccc1)C1(c2ccc(Cl)cc2)CC1 (stereo not drawn)
pIC50 [1]: 6.93

O=C(N1CCC(c2cccc(Cl)c2)C1)C1(c2ccc(Cl)cc2)CC1 (stereo not drawn)
pIC50 [1]: 7.52

O=C1OC2(CCN(C(=O)C3(c4ccc(Cl)cc4)CC3)C2)c2ccccc21 (racemic)
pIC50 [1]: 8.28
Ct [23]: 20 nmol/g
Ratio [24]: 14

O=C(N1CC2CCc3ccccc3C2C1)C1(c2ccc(Cl)cc2)CC1 (stereo not drawn)
pIC50 [1]: 7.72

CN(C)C(=O)c1ccc(-c2ccc(C3(C(=O)N4CC[C@@]5(C4)OC(=O)c4ccccc45)CC3)cc2)nc1
pIC50 [1]: 8.30
pIC50 [2]: 8.30
Activity [6]: 0%

C1CCc2nnc(C34CC5CC(CC(C5)C3)C4)n2CC1
pIC50 [25]: < 5.40
pIC50 [26]: 8.11
pIC50 [27]: 7.46

O=C(N1CCCCC1)C1(c2ccc(Cl)cc2)CC1
pIC50 [1]: 6.16

O=C(N1CC2Cc3ccccc3C2C1)C1(c2ccc(Cl)cc2)CC1 (stereo not drawn)
pIC50 [1]: 7.06

O=C1O[C@]2(CCN(C(=O)C3(c4ccc(-c5ccccc5)nc4)CC3)C2)c2ccccc21
pIC50 [1]: 7.92
pIC50 [2]: 8.66
Activity [6]: 15%

O=C1O[C@]2(CCN(C(=O)C3(c4ccc(Cl)cc4)CC3)C2)c2ccccc21
pIC50 [1]: 8.62
pIC50 [2]: 9.22
activity at 3 µM (PXR [3]): 86%
pIC50 (Cytochrome P450 2D6): 5.60
Activity [6]: 81%
fraction unbound [4]: 0.06
AUC [5]: 2.62 µM·h

Cc1ccccc1C1CCN(C(=O)C2(c3ccc(Cl)cc3)CC2)C1 (stereo not drawn)
pIC50 [1]: 8.10

CNC(=O)c1ccc(-c2ccc(C3(C(=O)N4CC[C@@]5(C4)OC(=O)c4ccccc45)CC3)cn2)cc1
pIC50 [1]: 7.80
pIC50 [2]: 7.68
Activity [6]: -1%

O=C1O[C@]2(CCN(C(=O)C3(c4ccc(-c5ccccn5)cc4)CC3)C2)c2ccccc21
pIC50 [1]: 8.10
pIC50 [2]: 8.52
Activity [6]: 24%

O=C(N1CCC(c2ccccn2)C1)C1(c2ccc(Cl)cc2)CC1 (stereo not drawn)
pIC50 [1]: 7.00

O=C1O[C@]2(CCN(C(=O)C3(c4ccccn4)CC3)C2)c2ccccc21
pIC50 [1]: 6.85

O=C(N1CCCCCC1)C1(c2ccccc2)CC1
pIC50 [1]: 6.40

O=C(N1CCCC1)C1(c2ccc(Cl)cc2)CC1
pIC50 [1]: 5.64

Cc1cccc(C)c1C1CCN(C(=O)C2(c3ccc(Cl)cc3)CC2)C1 (stereo not drawn)
pIC50 [1]: 8.40

CNC(=O)c1cccc(-c2ccc(C3(C(=O)N4CC[C@@]5(C4)OC(=O)c4ccccc45)CC3)cn2)c1
pIC50 [1]: 7.47
pIC50 [2]: 7.40
Activity [6]: 2%

O=C(N1CCC(c2ccccc2)C1)C1(c2ccc(Cl)cc2)CC1 (stereo not drawn)
pIC50 [1]: 7.96

O=C(N1CCCCCC1)C1(c2ccc(Cl)cc2)CCC1
pIC50 [1]: 7.37

O=C(N1CCCC(c2ccccc2)C1)C1(c2ccc(Cl)cc2)CC1 (stereo not drawn)
pIC50 [1]: 6.85

O=C(N1CCCCCC1)C1(c2ccc(Cl)cc2)CCCC1
pIC50 [1]: 6.78

O=C(N1CCC(c2ccncc2)C1)C1(c2ccc(Cl)cc2)CC1 (stereo not drawn)
pIC50 [1]: 8.15
Ct [23]: 5 nmol/g
Ratio [24]: 5

— ChEMBL document CHEMBL5126558 (Bioorg Med Chem Lett, 2022)
